Source: patent publication US11072633B2 (priority 2016, dated 2021)
Where two headings read alike, the source gives them in different places.

What was measured:
[1] = both, human, microsomes, 2 μM, pH 7.4
in vitro [2] = format: cell-based; details: human
Description: (§1) The cytotoxicity of SB107 was determined by measuring […], THP-1, HepG2, and HK-2 cell viability after 3 days in the presence of SB107 in a 384-well plate format. SB107 was prepared as 10-point serial dilutions in DMSO, with the highest concentration at 30 μM. Assay plates were incubated for 3 days at 37° C., 5% CO2 and relative luminescent units (RLU) were measured using the CellTiter-Glo® Luminescent Cell Viability Assay. The dose response curve was fitted using the Levenberg-Marquardt algorithm.

[3] = Metabolic stability in human liver microsomes; details: both, pH 7.4
[4] = test system: M. tuberculosis constitutively expressing the luxABCDE operon; assay: microbe, parasite or virus in culture; format: cell-based
in vitro [5] = format: cell-based; details: human; remark: listed apart in the source
Description: as §1

in vivo [6] = details: male, CD-1, mouse
[7] = Pharmacokinetics and bioavailability in plasma; details: male, CD-1, mouse
Mtb = assay: Isoniazid MIC shift on Mtb MIC plates (broth microdilution MIC); format: cell-based, M. tuberculosis
CYP2B6 = molecular target: T1, CYP2B6 (Homo sapiens, UniProt P20813); assay: in vitro; format: in vitro ADME; details: both sexes, microsomes, read-out: % Inhibition 2B6
T1 construct: using pooled male and female human liver microsomes; from tissue; host or cells: pooled human liver microsomes
Description: (§2) The potential for inhibtion of CYP enzymes (CYP1A2, CYP2A6, CYP2B6, CYP2C8, CYP2C9, CYP2C19, CYP2D6, CYP2E1 and CYP3A4) by 107 at 10 μM were using pooled male and female human liver microsomes, Freshly plated human microsomes with substrate to each CYP enzyme was treated with 107 for 5-20 min. The concentrations of marker metabolites of known substrates were determined by LCMS analysis.
(§3) The inhibition of CYP enzymes by 107 was evaluated in human liver microsomes (Table 11).

CYP2A6 = molecular target: T2, CYP2A6 (Homo sapiens, UniProt P11509); assay: in vitro; format: in vitro ADME; details: both sexes, microsomes, read-out: % Inhibition 2A6
T2 construct: using pooled male and female human liver microsomes; from tissue; host or cells: pooled human liver microsomes
Description: as §2, §3

CYP2D6 = molecular target: T3, CYP2D6 (Homo sapiens, UniProt P10635); assay: in vitro; format: in vitro ADME; details: both sexes, microsomes, read-out: % Inhibition 2D6
T3 construct: using pooled male and female human liver microsomes; from tissue; host or cells: pooled human liver microsomes
Description: as §2, §3

CYP2C19 = molecular target: T4, CYP2C19 (Homo sapiens, UniProt P33261); assay: in vitro; format: in vitro ADME; details: both sexes, microsomes, read-out: % Inhibition 2C19
T4 construct: using pooled male and female human liver microsomes; from tissue; host or cells: pooled human liver microsomes
Description: as §2, §3

CYP2E1 = molecular target: T5, CYP2E1 (Homo sapiens, UniProt P05181); assay: in vitro; format: in vitro ADME; details: both sexes, microsomes, read-out: % Inhibition 2E1
T5 construct: using pooled male and female human liver microsomes; from tissue; host or cells: pooled human liver microsomes
Description: as §2, §3

CYP1A2 = molecular target: T6, CYP1A2 (Homo sapiens, UniProt P05177); assay: in vitro; format: in vitro ADME; details: both sexes, microsomes, read-out: % Inhibition 1A2
T6 construct: using pooled male and female human liver microsomes; from tissue; host or cells: pooled human liver microsomes
Description: as §2, §3

CYP2C8 = molecular target: T7, CYP2C8 (Homo sapiens, UniProt P10632); assay: in vitro; format: in vitro ADME; details: both sexes, microsomes, read-out: % Inhibition 2C8
T7 construct: using pooled male and female human liver microsomes; from tissue; host or cells: pooled human liver microsomes
Description: as §2, §3

CYP2C9 = molecular target: T8, CYP2C9 (Homo sapiens, UniProt P11712); assay: in vitro; format: in vitro ADME; details: both sexes, microsomes, read-out: % Inhibition 2C9
T8 construct: using pooled male and female human liver microsomes; from tissue; host or cells: pooled human liver microsomes
Description: as §2, §3

in vitro [8] = format: cell-based; details: human; remark: listed apart in the source
Description: as §1

CYP3A4 = molecular target: T9, CYP3A4 (Homo sapiens, UniProt P08684); assay: Inhibition of CYPs in human liver microsomes, CYP3A4; format: in vitro ADME; details: for inhibition at 10 µM: both sexes, human, microsomes
T9 construct: using pooled male and female human liver microsomes; from tissue; host or cells: pooled human liver microsomes
Description: as §2, §3

in vitro [9] = format: cell-based; details: human; remark: listed apart in the source
Description: as §1

Caco-2 cell line = assay: in vitro; format: in vitro ADME; details: human, Caco-2, 2 h, 5 μM, pH 7.4
Description: (§4) Caco-2 cells were diluted to 6.86×10^6 cells/mL, dispensed into a 96-well HTS Transwell plate, and cultured for 14 to 18 days. 6-azasteroids at 5 μM was incubated at 37° C. for 2 hours with the Caco-2 cell monolayer in HBSS buffer (10 mM HEPES, pH 7.4) containing 5% BSA. Aliquots from donor sides (apical compartment for Ap→Bl flux, and basolateral compartment for Bl→Ap) and receiver sides (basolateral compartment for Ap→Bl flux, and apical compartment for Bl→Ap) were separated and extracted by acetonitrile or methanol containing appropriate internal standards (IS). The concentration of 6-azasteroid was determined by LC-MS/MS analysis.
(§5) Elution rate: 0.65 mL/min.
(§6) To predict absorption via oral administration, Caco-2 bidirectional permeability assay was performed (Table 8).

in vitro [10] = format: in vitro ADME; details: human
Description: as §4, §5, §6

hERG = molecular target: T10, hERG (Homo sapiens, UniProt Q12809); assay: hERG assay (hERG currents in HEK 293 cells); format: cell-based
T10 construct: expressed in transfected cells
Description: hERG stably expressed HEK 293 cells were seeded at 5×10^5 cells/per 6 cm cell culture dish and induced with doxycycline at 1 μg/mL for 48 hours. Compound at the final concentrations of 30, 10, 3.33, 1.11 and 0.37 μM was applied to the cells accumulatively, post-compound hERG currents were recorded, and IC50 was calculated. Dofetilide was used as a positive control.
To predict the potential cardiotoxic effects of 6-azastroids, human ether-a-go-go related gene (hERG) assay was applied to 100, 107 and 114 (Table 9). Cytotoxicity of 107 was also assessed (Table 10).

in vivo [11] = details: male, CD-1, mouse; remark: listed apart in the source
in vitro [12] = details: both, human, microsomes, pH 7.4
M. tuberculosis = assay: Minimum Bactericidal Concentration (MBC); format: cell-based; details: Mycobacterium tuberculosis; INH with 60 μM 107; read-out: MBC of INH

T9 sequence (P08684 whole entry): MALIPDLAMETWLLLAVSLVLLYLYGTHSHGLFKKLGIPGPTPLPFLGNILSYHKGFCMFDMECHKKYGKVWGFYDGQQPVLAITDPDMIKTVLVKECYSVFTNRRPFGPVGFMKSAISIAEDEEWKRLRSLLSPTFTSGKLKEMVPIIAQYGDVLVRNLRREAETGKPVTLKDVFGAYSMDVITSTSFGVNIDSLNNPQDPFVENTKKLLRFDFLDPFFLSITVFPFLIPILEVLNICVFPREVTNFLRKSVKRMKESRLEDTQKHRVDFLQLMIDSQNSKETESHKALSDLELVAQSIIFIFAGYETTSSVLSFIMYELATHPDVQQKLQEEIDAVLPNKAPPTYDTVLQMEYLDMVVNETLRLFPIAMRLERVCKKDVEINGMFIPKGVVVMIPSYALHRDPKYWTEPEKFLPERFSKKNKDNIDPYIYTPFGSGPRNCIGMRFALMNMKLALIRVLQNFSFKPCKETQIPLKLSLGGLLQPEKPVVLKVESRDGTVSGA
T10 sequence (Q12809 whole entry): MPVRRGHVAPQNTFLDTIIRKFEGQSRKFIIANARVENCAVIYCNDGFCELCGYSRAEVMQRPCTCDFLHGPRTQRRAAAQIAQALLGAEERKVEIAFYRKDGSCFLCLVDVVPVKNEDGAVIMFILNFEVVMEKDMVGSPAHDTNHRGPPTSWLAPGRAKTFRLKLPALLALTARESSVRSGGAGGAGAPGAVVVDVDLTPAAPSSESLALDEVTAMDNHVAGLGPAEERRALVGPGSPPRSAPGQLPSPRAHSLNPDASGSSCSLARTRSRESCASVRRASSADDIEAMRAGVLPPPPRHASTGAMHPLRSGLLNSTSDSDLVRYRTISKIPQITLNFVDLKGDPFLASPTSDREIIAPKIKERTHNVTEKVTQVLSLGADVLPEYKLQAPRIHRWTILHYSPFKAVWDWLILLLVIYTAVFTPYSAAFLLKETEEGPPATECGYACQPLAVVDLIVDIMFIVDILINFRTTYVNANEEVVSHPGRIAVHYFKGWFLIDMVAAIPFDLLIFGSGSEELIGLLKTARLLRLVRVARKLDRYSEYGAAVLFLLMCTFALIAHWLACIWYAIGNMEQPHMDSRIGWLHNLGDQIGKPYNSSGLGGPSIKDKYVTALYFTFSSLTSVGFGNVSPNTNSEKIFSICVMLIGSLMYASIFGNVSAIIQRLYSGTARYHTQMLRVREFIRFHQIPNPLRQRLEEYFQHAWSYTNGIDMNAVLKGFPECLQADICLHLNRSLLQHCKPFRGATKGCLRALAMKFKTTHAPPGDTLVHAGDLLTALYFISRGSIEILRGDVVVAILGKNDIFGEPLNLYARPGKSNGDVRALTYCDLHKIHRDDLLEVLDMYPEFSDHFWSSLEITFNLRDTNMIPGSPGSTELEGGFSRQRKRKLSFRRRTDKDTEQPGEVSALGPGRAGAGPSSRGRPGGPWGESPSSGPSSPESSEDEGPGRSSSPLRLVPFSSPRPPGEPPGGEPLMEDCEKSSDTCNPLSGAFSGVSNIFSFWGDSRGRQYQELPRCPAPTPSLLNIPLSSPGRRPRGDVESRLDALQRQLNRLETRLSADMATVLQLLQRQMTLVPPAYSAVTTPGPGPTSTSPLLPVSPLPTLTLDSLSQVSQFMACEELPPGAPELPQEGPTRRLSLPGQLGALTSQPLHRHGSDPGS
T3 sequence (P10635 whole entry): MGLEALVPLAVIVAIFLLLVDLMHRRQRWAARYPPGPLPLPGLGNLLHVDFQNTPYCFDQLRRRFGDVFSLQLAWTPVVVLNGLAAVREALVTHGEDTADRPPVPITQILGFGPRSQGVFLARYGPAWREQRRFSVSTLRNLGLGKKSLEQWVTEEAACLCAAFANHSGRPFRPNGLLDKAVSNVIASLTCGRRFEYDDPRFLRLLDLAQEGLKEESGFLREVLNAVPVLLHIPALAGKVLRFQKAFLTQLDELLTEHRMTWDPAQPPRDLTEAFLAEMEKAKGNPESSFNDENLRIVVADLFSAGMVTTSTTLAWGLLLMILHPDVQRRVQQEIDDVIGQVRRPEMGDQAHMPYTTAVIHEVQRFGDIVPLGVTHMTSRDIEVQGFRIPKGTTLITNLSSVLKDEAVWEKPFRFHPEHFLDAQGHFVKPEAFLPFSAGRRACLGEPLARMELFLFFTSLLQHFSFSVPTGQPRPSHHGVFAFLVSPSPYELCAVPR
T8 sequence (P11712 whole entry): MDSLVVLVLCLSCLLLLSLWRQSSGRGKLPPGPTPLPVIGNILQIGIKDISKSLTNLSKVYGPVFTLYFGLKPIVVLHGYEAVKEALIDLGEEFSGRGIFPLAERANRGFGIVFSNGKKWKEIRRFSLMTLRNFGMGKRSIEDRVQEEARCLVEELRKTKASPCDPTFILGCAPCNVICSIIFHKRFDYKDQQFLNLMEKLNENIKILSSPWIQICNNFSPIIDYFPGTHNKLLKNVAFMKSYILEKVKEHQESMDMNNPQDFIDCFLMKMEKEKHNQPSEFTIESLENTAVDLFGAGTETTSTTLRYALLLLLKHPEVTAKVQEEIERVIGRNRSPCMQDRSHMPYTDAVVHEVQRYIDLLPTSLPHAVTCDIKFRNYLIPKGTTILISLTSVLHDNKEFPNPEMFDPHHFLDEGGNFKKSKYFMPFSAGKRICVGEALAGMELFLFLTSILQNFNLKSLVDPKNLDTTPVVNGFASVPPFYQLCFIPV
T7 sequence (P10632 whole entry): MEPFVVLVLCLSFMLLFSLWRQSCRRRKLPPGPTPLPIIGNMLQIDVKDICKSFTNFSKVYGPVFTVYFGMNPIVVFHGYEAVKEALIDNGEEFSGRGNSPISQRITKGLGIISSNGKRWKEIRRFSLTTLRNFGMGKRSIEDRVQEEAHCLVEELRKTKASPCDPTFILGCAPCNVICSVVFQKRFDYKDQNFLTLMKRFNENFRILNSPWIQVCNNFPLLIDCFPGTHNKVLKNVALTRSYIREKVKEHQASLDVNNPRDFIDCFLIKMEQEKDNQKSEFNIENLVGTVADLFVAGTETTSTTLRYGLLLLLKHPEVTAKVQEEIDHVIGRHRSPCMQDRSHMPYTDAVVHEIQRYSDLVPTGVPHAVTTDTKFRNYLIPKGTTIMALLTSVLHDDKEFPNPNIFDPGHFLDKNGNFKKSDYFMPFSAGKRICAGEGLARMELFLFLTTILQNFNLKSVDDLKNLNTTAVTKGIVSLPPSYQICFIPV
T4 sequence (P33261 whole entry): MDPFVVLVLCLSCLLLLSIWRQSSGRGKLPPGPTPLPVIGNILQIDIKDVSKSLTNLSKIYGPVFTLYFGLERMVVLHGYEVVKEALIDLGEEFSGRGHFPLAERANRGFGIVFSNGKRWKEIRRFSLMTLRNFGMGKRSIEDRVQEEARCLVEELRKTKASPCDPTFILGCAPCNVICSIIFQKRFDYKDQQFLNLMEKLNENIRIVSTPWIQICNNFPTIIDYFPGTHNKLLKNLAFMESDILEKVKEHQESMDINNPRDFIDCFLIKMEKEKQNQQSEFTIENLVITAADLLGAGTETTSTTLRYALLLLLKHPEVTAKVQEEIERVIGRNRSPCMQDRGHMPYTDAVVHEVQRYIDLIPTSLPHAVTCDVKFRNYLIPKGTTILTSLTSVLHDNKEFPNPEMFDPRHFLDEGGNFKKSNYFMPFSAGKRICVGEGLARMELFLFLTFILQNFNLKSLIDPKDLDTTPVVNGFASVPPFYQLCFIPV
T1 sequence (P20813 whole entry): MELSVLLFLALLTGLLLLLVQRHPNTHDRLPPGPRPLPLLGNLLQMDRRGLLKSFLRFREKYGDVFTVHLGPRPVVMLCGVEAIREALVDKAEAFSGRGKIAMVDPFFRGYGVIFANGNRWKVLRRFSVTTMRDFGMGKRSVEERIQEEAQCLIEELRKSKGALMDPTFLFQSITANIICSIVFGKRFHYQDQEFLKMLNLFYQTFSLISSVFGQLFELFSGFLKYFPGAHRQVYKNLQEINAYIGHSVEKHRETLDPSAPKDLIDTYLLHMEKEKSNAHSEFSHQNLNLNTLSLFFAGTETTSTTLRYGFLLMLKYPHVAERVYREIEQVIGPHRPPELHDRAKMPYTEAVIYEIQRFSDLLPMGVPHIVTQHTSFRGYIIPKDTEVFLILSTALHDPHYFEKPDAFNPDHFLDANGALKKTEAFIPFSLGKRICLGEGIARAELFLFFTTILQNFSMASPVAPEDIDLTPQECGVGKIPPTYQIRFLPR
T6 sequence (P05177 whole entry): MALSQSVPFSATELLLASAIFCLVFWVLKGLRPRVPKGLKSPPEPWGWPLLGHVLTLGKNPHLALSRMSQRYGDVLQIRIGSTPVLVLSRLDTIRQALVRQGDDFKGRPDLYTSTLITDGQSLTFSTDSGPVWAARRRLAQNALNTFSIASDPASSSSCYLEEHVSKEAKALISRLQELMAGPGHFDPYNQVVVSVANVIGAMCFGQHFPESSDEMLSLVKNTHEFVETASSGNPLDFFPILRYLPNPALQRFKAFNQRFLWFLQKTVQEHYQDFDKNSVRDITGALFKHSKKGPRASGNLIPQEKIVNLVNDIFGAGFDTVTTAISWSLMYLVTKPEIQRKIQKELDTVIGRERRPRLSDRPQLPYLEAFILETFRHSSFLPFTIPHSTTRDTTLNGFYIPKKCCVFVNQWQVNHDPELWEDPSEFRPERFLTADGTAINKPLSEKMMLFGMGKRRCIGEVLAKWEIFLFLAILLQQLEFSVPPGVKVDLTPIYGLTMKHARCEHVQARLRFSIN

## COc1nc(OC(F)(F)F)c(NC(=O)C2CCC3C4CN(C(=O)OC(C)(C)C)C5=CC(=O)CC[C@]5(C)C4CC[C@]23C)cc1Br (stereo partly drawn) [Compound 107]
[1]; 0 h
  Remaining Percentage with NADPH, 0 min: 100.00%
[1]; 0.25 h
  Remaining Percentage with NADPH, 15 min: 93.28%
[1]; 0.5 h
  Remaining Percentage with NADPH, 30 min: 79.18%
[1]; 0.75 h
  Remaining Percentage with NADPH, 45 min: 71.86%
[1]; 1 h
  Remaining Percentage with NADPH, 60 min: 65.13%
In vitro [2]
  IC50 at 3 days: > 30 µM
[3]
  half-life at 2 μM: 1.54 h
[4]; Mycobacterium tuberculosis, INH with 15 μM 6-azasteroid, read-out: LORA MIC of INH
  MIC: 0.75 µM
[4]; in combination with isoniazid
  activity under low oxygen conditions: active
In vitro [5]
  IC50 at 3 days: > 30 µM
In vivo [6]; iv, 1 mg/kg
  Tmax: 0.0833 h
In vivo [6]; po, 5 mg/kg
  Tmax: 1 h
[7]; iv, 1 mg/kg
  half-life: 6.75 h
[7]; po, 5 mg/kg
  half-life: 4.98 h
Mtb
  Isoniazid MIC shift: ++ (4-8-fold ++)
CYP2B6
  inhibition at 10 µM: 0%
CYP2A6
  inhibition at 10 µM: 16.5%
CYP2D6
  inhibition at 10 µM: 4.4%
CYP2C19
  inhibition at 10 µM: 65.3%
CYP2E1
  inhibition at 10 µM: 0%
CYP1A2
  inhibition at 10 µM: 0%
CYP2C8
  inhibition at 10 µM: 39.7%
CYP2C9
  inhibition at 10 µM: 33.1%
In vitro [8]
  IC50 at 3 days: > 30 µM
CYP3A4; 107 at 10 μM, either midazolam or testosterone as substrate, read-out: inhibition of CYP 3A4
  inhibition at 10 µM: 30%
CYP3A4; at 10 μM, midazolam as substrate, read-out: % Inhibition 3A4 (midazolam)
  inhibition at 10 µM: 30.4%
CYP3A4; at 10 μM, testosterone as substrate, read-out: % Inhibition 3A4 (testosterone)
  inhibition at 10 µM: 30.5%
CYP3A4; both substrates (midazolam, testosterone), tested 10 nM to 50 μM, read-out: CYP 3A4 IC50
  IC50: > 50 µM
In vitro [9]
  IC50 at 3 days: > 30 µM
Caco-2 cell line
  Efflux Ratio: 0.71
  Recovery (%) BL-AP: 58.07%
In vitro [10]; Caco-2, pH 7.4, Efflux Ratio
  efflux ratio at 2 h, 5 μM: > 1.06
In vitro [10]; Caco-2, pH 7.4, Recovery (%) BL-AP
  recovery at 2 h, 5 μM: 63.4%
hERG; at 30 μM
  hERG inhibition: No hERG inhibition was observed
hERG; hERG stably expressed HEK 293 cells
  IC50: > 30 µM
hERG; human, HEK 293 cells stably expressing hERG, at 30 mM
  inhibition at 30 mM: 34.1%
In vivo [11]
  half-life: ~7 h
In vivo [11]; po, 5 mg/kg
  Tmax: 1 h
In vitro [12]
  CLint scaled at 2 μM: 18.8 mL/min/kg
  microsomal CLint at 2 μM: 15 µL/min/mg
Lung tissue distribution; PO 5 mg/kg, lung, 5 mg/kg
  t1/2 Lung PO: 5.82 h
Lung tissue distribution; male, CD-1, mouse, lung, iv, 1 mg/kg, t1/2 Lung IV, IV 1 mg/kg
  half-life: 6.88 h
Lung tissue distribution; male, CD-1, mouse, lung, po, 5 mg/kg, t1/2 Lung PO, PO 5 mg/kg
  half-life: 5.8 h
Lung tissue distribution; male, CD-1, mouse, lung/plasma, po, 5 mg/kg
  Kp: 1.74
M. tuberculosis
  MBC: 3 µM
